Data published in patent EP2987533B1, “7-substituted piperazin-1-yl fluoroquinolone compounds, their use in the treatment of cancer, pharmaceutical compositions and a method for preparation” (priority 2014, dated 2016).

What was measured:
Assay in all cases: NCI five-dose SRB growth assay
Type in all cases: cell-based
MOLT-4 = settings: Homo sapiens; MOLT-4 (Leukemia), 48 h
PRMI-8226 = settings: Homo sapiens; PRMI-8226 (Leukemia), 48 h
HOP-62 = settings: Homo sapiens; HOP-62 (Non-Small Cell Lung Cancer), 48 h
NCI-H226 = settings: Homo sapiens; NCI-H226 (Non-Small Cell Lung Cancer), 48 h
NCI-H23 = settings: Homo sapiens; NCI-H23 (Non-Small Cell Lung Cancer), 48 h
NCI-H460 = settings: Homo sapiens; NCI-H460 (Non-Small Cell Lung Cancer), 48 h
NCI-H522 = settings: Homo sapiens; NCI-H522 (Non-Small Cell Lung Cancer), 48 h
HCC-2998 = settings: Homo sapiens; HCC-2998 (Colon Cancer), 48 h
HCT-116 = settings: Homo sapiens; HCT-116 (Colon Cancer), 48 h
HT29 = settings: Homo sapiens, HT-29; HT29 (Colon Cancer), 48 h
KM12 = settings: Homo sapiens; KM12 (Colon Cancer), 48 h
SW-620 = settings: Homo sapiens; SW-620 (Colon Cancer), 48 h
SF-268 = settings: Homo sapiens; SF-268 (CNS Cancer), 48 h
SF-539 = settings: Homo sapiens; SF-539 (CNS Cancer), 48 h
SNB-75 = settings: Homo sapiens; SNB-75 (CNS Cancer), 48 h
U251 = settings: Homo sapiens, U-251; U251 (CNS Cancer), 48 h
LOX IMVI = settings: Homo sapiens; LOX IMVI (Melanoma), 48 h
MALME-3M = settings: Homo sapiens; MALME-3M (Melanoma), 48 h
SK-MEL-28 = settings: Homo sapiens; SK-MEL-28 (Melanoma), 48 h
SK-MEL-5 = settings: Homo sapiens; SK-MEL-5 (Melanoma), 48 h
UACC-257 = settings: Homo sapiens; UACC-257 (Melanoma), 48 h
UACC-62 = settings: Homo sapiens; UACC-62 (Melanoma), 48 h
IGROV1 = settings: Homo sapiens, IGROV-1; IGROV1 (Ovarian Cancer), 48 h
OVCAR-3 = settings: Homo sapiens; OVCAR-3 (Ovarian Cancer), 48 h
OVCAR-4 = settings: Homo sapiens; OVCAR-4 (Ovarian Cancer), 48 h
OVCAR-5 = settings: Homo sapiens; OVCAR-5 (Ovarian Cancer), 48 h
OVCAR-8 = settings: Homo sapiens; OVCAR-8 (Ovarian Cancer), 48 h
NCI/ADR-RES = settings: Homo sapiens; NCI/ADR-RES (Ovarian Cancer), 48 h
CAKI-1 = settings: Homo sapiens; CAKI-1 (Renal Cancer), 48 h
RXF 393 = settings: Homo sapiens; RXF 393 (Renal Cancer), 48 h
PC-3 = settings: Homo sapiens; PC-3 (Prostate Cancer), 48 h
DU-145 = settings: Homo sapiens; DU-145 (Prostate Cancer), 48 h
MCF7 = settings: Homo sapiens; MCF7 (Breast Cancer), 48 h
MDA-MB-231/ATCC = settings: Homo sapiens; MDA-MB-231/ATCC (Breast Cancer), 48 h
HS 578T = settings: Homo sapiens; HS 578T (Breast Cancer), 48 h
T-47D = settings: Homo sapiens, T47D; T-47D (Breast Cancer), 48 h
MDA-MB-468 = settings: Homo sapiens; MDA-MB-468 (Breast Cancer), 48 h
NCI-H322M = settings: Homo sapiens; NCI-H322M (Non-Small Cell Lung Cancer), 48 h

Compound	GI50 (PRMI-8226) [nM]	GI50 (HOP-62) [nM]	GI50 (NCI-H226) [nM]	GI50 (NCI-H23) [nM]	GI50 (NCI-H460) [nM]	GI50 (NCI-H522) [nM]	GI50 (HCC-2998) [nM]	GI50 (HCT-116) [nM]	GI50 (HT29) [nM]	GI50 (KM12) [nM]	GI50 (SW-620) [nM]	GI50 (SF-268) [nM]	GI50 (SF-539) [nM]	GI50 (U251) [nM]	GI50 (LOX IMVI) [nM]	GI50 (SK-MEL-5) [nM]	GI50 (UACC-257) [nM]	GI50 (UACC-62) [nM]	GI50 (IGROV1) [nM]	GI50 (OVCAR-3) [nM]	further results
CCn1cc(C(=O)O)c(=O)c2cc(F)c(N3CCN(S(=O)(=O)c4ccc(Cl)cc4)CC3)cc21 [Compound 1a]	3080	4470	3020	2670	3160	1730	4100	3180	2640	4070	3430	3850	4120	3100	2400	1800	2160	2020	3140	3510	GI50 (MOLT-4): 3830 nM; GI50 (SNB-75): 2600 nM; GI50 (MALME-3M): 1990 nM; GI50 (SK-MEL-28): 4880 nM; GI50 (OVCAR-4): 2200 nM; GI50 (OVCAR-5): 4250 nM; GI50 (OVCAR-8): 2800 nM; GI50 (NCI/ADR-RES): 2980 nM; GI50 (CAKI-1): 2750 nM; GI50 (RXF 393): 3320 nM; GI50 (PC-3): 2310 nM; GI50 (DU-145): 4110 nM; GI50 (MCF7): 2970 nM; GI50 (MDA-MB-231/ATCC): 2510 nM; GI50 (HS 578T): 4520 nM; GI50 (T-47D): 3200 nM; GI50 (MDA-MB-468): 2100 nM
CCn1cc(C(=O)O)c(=O)c2cc(F)c(N3CCN(S(=O)(=O)c4ccc(Cl)cc4Cl)CC3)cc21 [Compound 2a]	2550	3080	2600	2330	3130	1810	2290	3560	3630	3420	3910	3860	1920	3300	1480	1870	2650	1610	2330	2540	GI50 (MOLT-4): 3550 nM; GI50 (NCI-H322M): 2860 nM; GI50 (MALME-3M): 1950 nM; GI50 (SK-MEL-28): 3210 nM; GI50 (OVCAR-4): 2580 nM; GI50 (OVCAR-5): 3430 nM; GI50 (OVCAR-8): 3300 nM; GI50 (NCI/ADR-RES): 3280 nM; GI50 (CAKI-1): 2010 nM; GI50 (RXF 393): 2080 nM; GI50 (PC-3): 2430 nM; GI50 (DU-145): 2810 nM; GI50 (MCF7): 2950 nM; GI50 (MDA-MB-231/ATCC): 1880 nM; GI50 (HS 578T): 2530 nM; GI50 (T-47D): 3110 nM; GI50 (MDA-MB-468): 1980 nM
O=C(O)c1cn(C2CC2)c2cc(N3CCN(S(=O)(=O)c4ccc(Cl)c(Cl)c4)CC3)c(F)cc2c1=O [Compound 3b]	2530	4770	3580	2900	3660	1990	4470	3860	3770	3620	4050	4770	3390	3330	1440	2040	2480	1750	2730	3900	GI50 (MOLT-4): 4000 nM; GI50 (NCI-H322M): 3240 nM; GI50 (MALME-3M): 2300 nM; GI50 (SK-MEL-28): 2670 nM; GI50 (OVCAR-4): 2280 nM; GI50 (OVCAR-5): 4140 nM; GI50 (OVCAR-8): 3330 nM; GI50 (NCI/ADR-RES): 4010 nM; GI50 (CAKI-1): 2710 nM; GI50 (RXF 393): 2980 nM; GI50 (PC-3): 2460 nM; GI50 (DU-145): 4310 nM; GI50 (MCF7): 2840 nM; GI50 (MDA-MB-231/ATCC): 2140 nM; GI50 (HS 578T): 4260 nM; GI50 (T-47D): 3770 nM; GI50 (MDA-MB-468): 2250 nM
Cc1cc(C)c(S(=O)(=O)N2CCN(c3cc4c(cc3F)c(=O)c(C(=O)O)cn4C3CC3)CC2)c(C)c1 [Compound 6b]	2340	3650	1230	3410	3040	2800	5370	2980	3150	3380	3400	3960	3140	2890	1420	3030	> 100000	2430	2660	3170	GI50 (NCI-H322M): 5190 nM; GI50 (SNB-75): 2230 nM; GI50 (OVCAR-4): 2370 nM; GI50 (OVCAR-8): 2870 nM; GI50 (NCI/ADR-RES): 3290 nM; GI50 (CAKI-1): 1800 nM; GI50 (RXF 393): 2410 nM; GI50 (DU-145): 3400 nM; GI50 (MCF7): 2590 nM; GI50 (MDA-MB-231/ATCC): 2030 nM; GI50 (HS 578T): 2400 nM; GI50 (T-47D): 4810 nM; GI50 (MDA-MB-468): 1970 nM
CCn1cc(C(=O)O)c(=O)c2cc(F)c(N3CCN(S(=O)(=O)c4cccc5ccccc45)CC3)cc21 [Compound 7a]	2790	4600	3710	3130	3430	2780	4260	3880	3950	2960	3570	4390	2430	3290	1630	2240	2720	2250	2470	3690	GI50 (MOLT-4): 4460 nM; GI50 (NCI-H322M): 2600 nM; GI50 (SNB-75): 1890 nM; GI50 (MALME-3M): 2830 nM; GI50 (SK-MEL-28): 6090 nM; GI50 (OVCAR-4): 2600 nM; GI50 (OVCAR-5): 3380 nM; GI50 (OVCAR-8): 3090 nM; GI50 (NCI/ADR-RES): 3200 nM; GI50 (CAKI-1): 2330 nM; GI50 (RXF 393): 3190 nM; GI50 (PC-3): 2660 nM; GI50 (DU-145): 3970 nM; GI50 (MCF7): 2720 nM; GI50 (MDA-MB-231/ATCC): 1910 nM; GI50 (HS 578T): 2680 nM; GI50 (T-47D): 3350 nM; GI50 (MDA-MB-468): 2520 nM
